This note sets out measurements from paper PMC8881512 (Nature Communications, 2022).

Each structure is given as a SMILES string. Values joined by “and” are separate entries in the source; they are usually repeats but may differ in a detail not shown here. Equal entries are not always repeated. Some results are limits rather than exact numbers.

For assay [1], the target named is T1, LATS2 (Homo sapiens, UniProt Q9NRM7).
T1 construct: purchased Signalchem
T1 sequence (Q9NRM7 1-1088): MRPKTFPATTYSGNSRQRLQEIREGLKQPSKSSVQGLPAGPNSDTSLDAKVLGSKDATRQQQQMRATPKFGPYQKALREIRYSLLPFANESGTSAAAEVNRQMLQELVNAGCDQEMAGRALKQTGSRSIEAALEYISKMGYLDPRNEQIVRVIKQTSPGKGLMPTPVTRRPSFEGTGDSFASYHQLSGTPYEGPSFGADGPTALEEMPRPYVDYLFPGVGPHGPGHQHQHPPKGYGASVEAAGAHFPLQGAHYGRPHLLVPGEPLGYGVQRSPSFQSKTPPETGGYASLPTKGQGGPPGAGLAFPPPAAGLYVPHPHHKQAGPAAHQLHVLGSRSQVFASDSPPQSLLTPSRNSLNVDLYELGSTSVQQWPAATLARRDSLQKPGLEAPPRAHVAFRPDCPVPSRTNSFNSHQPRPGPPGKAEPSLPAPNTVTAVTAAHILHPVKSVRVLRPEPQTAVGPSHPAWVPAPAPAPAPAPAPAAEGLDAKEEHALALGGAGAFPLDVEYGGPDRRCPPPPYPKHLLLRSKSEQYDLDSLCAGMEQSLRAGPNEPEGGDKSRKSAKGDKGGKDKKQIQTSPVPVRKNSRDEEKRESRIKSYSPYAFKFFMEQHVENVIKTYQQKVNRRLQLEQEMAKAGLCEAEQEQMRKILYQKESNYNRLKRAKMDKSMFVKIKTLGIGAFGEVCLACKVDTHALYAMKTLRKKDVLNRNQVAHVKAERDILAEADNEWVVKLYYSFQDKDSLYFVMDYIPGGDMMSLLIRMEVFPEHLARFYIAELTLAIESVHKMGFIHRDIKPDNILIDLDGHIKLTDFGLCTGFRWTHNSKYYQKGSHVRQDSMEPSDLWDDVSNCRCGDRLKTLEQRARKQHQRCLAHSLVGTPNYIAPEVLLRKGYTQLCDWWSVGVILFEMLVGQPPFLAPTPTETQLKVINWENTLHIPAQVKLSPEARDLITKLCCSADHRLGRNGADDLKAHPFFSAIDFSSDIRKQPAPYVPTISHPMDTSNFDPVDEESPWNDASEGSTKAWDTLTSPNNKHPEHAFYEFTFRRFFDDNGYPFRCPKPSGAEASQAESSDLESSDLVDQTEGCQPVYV
Kind of assay: In vitro LATS2 kinase inhibition assay (HTRF). The format is biochemical. Conditions: for LATS2 kinase activity: Fig.5c; for IC50: in vitro, 6000 μM ATP, n = 2. More on the design: key to LATS2 kinase activity: % inhibition = (HIGH − ratio)×100/(HIGH − LOW). On the procedure: The kinase activity of LATS1 and LATS2 were performed based on an adapted and optimised HTRF Kinase Binding assay (Cisbio). Briefly, the concentration-response curves with compound concentration range of 10,000 to 0.17 nM with 3-fold serial dilution and 1X Kinase enzymatic buffer (Cisbio), 1.2 nM LATS1 or LATS2 kinases (Signalchem), 0.5 μM biotinylation labelled YAP peptide (Vivace) were dispensed into 384-well microplates by automated digital dispenser Echo/POD with the final DMSO concentration in all wells at 0.5%. To start the enzymatic reaction, 3000 μM ATP (for LATS1) or 6000 μM ATP (for LATS2) were added using multidrop in a 10-μl volume and incubated for 90 min at 30 °C. Subsequently, 10 μl of HTRF KinEASE detection buffer (Cisbio) containing 31.25 nM acceptor conjugate (streptavidin-XL665) and 1:100 donor conjugate (TK antibody labelled with Eu^3+-Cryptate) mixture were added and incubated at RT for 60 min, and the fluorescence emission at two different wavelengths was measured (615 nm and 665 nm) on Envision. […] The inhibition was calculated by the formula, inhibition % = (HIGH − ratio) × 100/ (High − LOW). HIGH control stands for 0.5% DMSO with kinase and LOW control stands for 0.5% DMSO without kinase. The data was analysed by Xlfit software. The IC50 values were determined by fitting to a standard four-parameter logistic using GraphPad Prism.

For assay [2], the system named is ER+ breast tumour organoids (BTO-02). As to the kind of experiment: 3D organoids drug response assay (CellTiter-Glo 3D). Conditions: 3D drug killing assay; 12 days after compound treatment; Fig. 6b. The format is cell-based, human. The method, then:
Breast tumour organoids were dissociated into single cells using TrypLE Express and counted with automated cell counter. Subsequently, 1000 cells were mixed in 10 μl BME type 2, seeded onto 96-well plate in triplicate and overlaid with 100 μl BC organoid medium (BOM) after BME gelation. Three days after organoids sphere formation, medium was removed and replaced by 100 μl of complete medium containing VT02956 (0, 0.04, 0.2, 1, 5 μM) or vehicle (DMSO). The drug-containing medium was refreshed every 3 days for additional 3–4 times. At the end of the treatment, the effect of the drugs on the tumour organoids, in terms of the organoids cell growth, was assayed with CellTiter-Glo 3D (Promega) according to the manufacturer’s instructions and were normalised to vehicle controls (0.5% DMSO content). The IC50 values was calculated in GraphPad Prism 8.

Assay [3] relates to ERα, YAP/TAZ phosphorylation in MCF-7 cells. Kind of assay: Immunoblot analysis, MCF-7 cells. Format: cell-based, human. Conditions: MCF-7; 0.1, 0.5 and 2 μM for 2 days; Fig. 5f.
In assay [4] the target is T2, PKAcg (Homo sapiens, UniProt P22612).
T2 construct: LATS1/LATS2 enzymes from Signalchem
Kind of assay: Kinome profiling. Format: biochemical. As to conditions: VT02956 (5 nM), read-out: % enzymatic activity relative to DMSO controls.

Assay [5] addresses T3, HGK/MAP4K4 (Homo sapiens, UniProt O95819).
T3 construct: LATS1/LATS2 enzymes from Signalchem
Kind of assay: Kinome profiling. Format: biochemical. Conditions: VT02956 (5 nM), read-out: % enzymatic activity relative to DMSO controls.

Assay [6] concerns the target T4, SNRK (Homo sapiens, UniProt Q9NRH2).
T4 construct: LATS1/LATS2 enzymes from Signalchem
As to the kind of experiment: Kinome profiling. The format is biochemical. As to conditions: VT02956 (5 nM), read-out: % enzymatic activity relative to DMSO controls.

Assay [7] addresses T5, MSK2/RPS6KA4 (Homo sapiens, UniProt O75676).
T5 construct: LATS1/LATS2 enzymes from Signalchem
Kind of assay: Kinome profiling. Format: biochemical. As to conditions: VT02956 (5 nM), read-out: % enzymatic activity relative to DMSO controls.

The target in assay [8] is T6, COT1/MAP3K8 (Homo sapiens, UniProt P41279).
T6 construct: LATS1/LATS2 enzymes from Signalchem
As to the kind of experiment: Kinome profiling. As to conditions: VT02956 (5 nM), read-out: % enzymatic activity relative to DMSO controls. The format is biochemical.

Assay [9] concerns the target T7, PKN1/PRK1 (Homo sapiens, UniProt Q16512).
T7 construct: LATS1/LATS2 enzymes from Signalchem
Kind of assay: Kinome profiling. Format: biochemical. Conditions: VT02956 (5 nM), read-out: % enzymatic activity relative to DMSO controls.

The target in assay [10] is T8, PHKg2 (Homo sapiens, UniProt P15735).
T8 construct: LATS1/LATS2 enzymes from Signalchem
Kind of assay: Kinome profiling. Conditions: VT02956 (5 nM), read-out: % enzymatic activity relative to DMSO controls. Format: biochemical.

The target in assay [11] is T9, JAK1 (Homo sapiens, UniProt P23458).
T9 construct: LATS1/LATS2 enzymes from Signalchem
Kind of assay: Kinome profiling. As to conditions: VT02956 (5 nM). The format is biochemical.

Assay [12] deals with T10, PKMYT1 (Homo sapiens, UniProt Q99640).
T10 construct: LATS1/LATS2 enzymes from Signalchem
Kind of assay: Kinome profiling. The format is biochemical. Conditions: VT02956 (5 nM).

T2 sequence (P22612 whole entry): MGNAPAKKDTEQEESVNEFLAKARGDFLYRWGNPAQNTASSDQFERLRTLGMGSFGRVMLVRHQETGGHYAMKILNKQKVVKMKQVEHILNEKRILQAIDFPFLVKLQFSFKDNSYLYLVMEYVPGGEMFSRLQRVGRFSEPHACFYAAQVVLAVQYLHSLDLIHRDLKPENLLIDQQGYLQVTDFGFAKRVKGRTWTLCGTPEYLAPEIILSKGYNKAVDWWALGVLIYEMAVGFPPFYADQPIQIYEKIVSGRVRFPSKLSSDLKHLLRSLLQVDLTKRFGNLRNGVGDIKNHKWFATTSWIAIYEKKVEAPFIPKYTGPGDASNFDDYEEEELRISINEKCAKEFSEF
T6 sequence (P41279 whole entry): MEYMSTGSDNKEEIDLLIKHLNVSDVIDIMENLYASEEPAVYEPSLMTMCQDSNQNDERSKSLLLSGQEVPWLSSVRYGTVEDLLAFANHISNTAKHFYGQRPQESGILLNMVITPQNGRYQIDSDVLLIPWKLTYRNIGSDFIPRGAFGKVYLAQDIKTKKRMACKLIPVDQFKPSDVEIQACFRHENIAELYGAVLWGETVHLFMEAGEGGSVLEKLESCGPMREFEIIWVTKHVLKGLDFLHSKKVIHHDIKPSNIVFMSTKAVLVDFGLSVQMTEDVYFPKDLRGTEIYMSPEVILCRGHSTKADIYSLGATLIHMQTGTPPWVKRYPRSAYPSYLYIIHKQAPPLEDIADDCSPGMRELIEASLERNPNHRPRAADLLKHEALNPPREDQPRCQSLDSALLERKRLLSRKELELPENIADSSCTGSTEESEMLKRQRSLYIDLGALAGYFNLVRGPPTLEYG
T10 sequence (Q99640 whole entry): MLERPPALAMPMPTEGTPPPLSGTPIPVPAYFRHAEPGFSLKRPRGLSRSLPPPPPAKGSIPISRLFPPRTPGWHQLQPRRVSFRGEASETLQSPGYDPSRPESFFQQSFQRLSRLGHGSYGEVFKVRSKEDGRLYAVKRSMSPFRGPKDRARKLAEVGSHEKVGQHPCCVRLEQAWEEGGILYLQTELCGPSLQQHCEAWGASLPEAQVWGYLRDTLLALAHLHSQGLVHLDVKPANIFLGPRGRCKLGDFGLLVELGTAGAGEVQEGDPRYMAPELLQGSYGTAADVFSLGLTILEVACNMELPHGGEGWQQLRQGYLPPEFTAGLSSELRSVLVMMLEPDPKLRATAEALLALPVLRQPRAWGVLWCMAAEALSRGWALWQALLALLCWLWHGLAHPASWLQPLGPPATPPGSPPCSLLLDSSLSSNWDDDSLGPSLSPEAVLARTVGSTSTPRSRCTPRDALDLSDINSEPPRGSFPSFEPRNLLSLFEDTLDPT
T9 sequence (P23458 whole entry): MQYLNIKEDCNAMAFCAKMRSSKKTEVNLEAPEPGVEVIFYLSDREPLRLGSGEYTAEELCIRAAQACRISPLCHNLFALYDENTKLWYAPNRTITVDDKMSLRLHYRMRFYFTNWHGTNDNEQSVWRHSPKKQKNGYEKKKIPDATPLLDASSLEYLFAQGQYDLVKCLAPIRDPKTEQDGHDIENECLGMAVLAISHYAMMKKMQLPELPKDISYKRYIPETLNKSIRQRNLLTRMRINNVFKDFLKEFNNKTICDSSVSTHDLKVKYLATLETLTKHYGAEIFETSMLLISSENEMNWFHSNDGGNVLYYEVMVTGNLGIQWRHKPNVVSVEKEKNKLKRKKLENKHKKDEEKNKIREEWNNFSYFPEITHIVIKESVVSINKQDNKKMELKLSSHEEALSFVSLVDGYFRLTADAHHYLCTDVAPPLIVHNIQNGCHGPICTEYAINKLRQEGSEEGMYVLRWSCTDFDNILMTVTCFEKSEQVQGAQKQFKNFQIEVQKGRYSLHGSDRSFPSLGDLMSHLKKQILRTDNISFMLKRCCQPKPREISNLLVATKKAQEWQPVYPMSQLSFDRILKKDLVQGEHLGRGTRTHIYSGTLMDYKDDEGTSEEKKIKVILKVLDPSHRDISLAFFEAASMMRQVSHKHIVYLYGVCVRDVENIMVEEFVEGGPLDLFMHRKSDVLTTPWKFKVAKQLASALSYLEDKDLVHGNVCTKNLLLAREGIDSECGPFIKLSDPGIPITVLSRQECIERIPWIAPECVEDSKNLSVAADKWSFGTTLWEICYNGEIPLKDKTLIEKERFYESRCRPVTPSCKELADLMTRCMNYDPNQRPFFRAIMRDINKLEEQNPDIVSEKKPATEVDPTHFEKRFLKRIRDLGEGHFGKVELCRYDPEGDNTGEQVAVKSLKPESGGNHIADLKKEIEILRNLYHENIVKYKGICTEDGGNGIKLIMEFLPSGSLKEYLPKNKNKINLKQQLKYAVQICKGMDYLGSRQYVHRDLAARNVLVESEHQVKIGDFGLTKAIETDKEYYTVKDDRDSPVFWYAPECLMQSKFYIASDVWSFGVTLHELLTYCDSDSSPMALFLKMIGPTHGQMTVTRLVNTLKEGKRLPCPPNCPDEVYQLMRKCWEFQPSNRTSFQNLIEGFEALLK
T3 sequence (O95819 whole entry): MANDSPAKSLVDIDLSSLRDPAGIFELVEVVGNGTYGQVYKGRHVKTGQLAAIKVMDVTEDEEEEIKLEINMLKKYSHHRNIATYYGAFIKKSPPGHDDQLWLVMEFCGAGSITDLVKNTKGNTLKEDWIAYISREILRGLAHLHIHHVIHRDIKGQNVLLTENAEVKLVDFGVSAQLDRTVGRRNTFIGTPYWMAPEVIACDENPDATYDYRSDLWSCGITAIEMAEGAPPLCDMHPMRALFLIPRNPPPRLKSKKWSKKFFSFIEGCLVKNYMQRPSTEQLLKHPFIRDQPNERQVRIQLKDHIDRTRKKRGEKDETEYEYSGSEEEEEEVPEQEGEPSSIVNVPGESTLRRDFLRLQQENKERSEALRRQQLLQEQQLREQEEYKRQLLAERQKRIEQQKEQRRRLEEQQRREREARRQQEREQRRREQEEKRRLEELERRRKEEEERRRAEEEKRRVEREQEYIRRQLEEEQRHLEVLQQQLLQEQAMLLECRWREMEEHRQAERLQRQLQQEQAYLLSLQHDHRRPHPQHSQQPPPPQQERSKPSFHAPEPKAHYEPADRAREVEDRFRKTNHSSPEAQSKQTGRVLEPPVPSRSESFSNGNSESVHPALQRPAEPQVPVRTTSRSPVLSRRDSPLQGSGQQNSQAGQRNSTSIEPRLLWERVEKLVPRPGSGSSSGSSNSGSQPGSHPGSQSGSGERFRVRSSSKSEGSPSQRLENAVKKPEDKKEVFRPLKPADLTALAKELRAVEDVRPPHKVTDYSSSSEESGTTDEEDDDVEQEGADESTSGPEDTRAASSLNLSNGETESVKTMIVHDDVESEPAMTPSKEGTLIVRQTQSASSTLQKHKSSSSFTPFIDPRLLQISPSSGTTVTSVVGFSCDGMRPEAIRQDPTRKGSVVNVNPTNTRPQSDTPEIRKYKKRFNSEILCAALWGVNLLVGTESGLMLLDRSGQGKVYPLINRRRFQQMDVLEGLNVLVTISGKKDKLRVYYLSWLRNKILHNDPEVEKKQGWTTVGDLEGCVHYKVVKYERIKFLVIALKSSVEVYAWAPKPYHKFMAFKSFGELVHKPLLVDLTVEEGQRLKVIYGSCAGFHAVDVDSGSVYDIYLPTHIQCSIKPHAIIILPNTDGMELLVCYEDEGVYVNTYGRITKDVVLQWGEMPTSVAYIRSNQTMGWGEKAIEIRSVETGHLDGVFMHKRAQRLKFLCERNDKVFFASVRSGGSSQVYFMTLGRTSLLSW
T7 sequence (Q16512 whole entry): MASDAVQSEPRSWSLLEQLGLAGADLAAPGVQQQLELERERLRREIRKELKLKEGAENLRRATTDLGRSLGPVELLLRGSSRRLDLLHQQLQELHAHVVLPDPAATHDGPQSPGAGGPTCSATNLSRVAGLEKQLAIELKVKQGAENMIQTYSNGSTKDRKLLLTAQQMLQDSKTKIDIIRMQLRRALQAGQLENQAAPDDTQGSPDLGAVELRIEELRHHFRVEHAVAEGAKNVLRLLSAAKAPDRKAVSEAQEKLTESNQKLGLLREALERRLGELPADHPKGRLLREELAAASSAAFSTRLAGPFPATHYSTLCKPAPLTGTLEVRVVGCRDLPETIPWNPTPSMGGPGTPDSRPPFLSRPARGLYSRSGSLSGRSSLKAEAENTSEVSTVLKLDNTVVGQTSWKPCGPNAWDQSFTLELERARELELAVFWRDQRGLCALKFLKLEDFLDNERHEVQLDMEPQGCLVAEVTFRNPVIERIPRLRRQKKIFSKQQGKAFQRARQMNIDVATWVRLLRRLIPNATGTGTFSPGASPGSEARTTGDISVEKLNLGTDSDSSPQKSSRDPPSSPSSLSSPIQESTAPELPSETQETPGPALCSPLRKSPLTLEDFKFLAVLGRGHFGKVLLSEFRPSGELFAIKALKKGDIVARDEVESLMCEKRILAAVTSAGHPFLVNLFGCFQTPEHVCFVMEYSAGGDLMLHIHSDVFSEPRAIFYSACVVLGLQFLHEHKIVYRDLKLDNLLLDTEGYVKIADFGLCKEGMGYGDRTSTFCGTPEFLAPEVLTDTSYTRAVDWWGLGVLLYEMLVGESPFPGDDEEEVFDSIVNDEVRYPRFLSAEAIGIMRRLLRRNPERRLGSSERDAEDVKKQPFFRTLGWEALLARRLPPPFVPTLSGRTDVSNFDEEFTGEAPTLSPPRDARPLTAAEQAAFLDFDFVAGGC
T8 sequence (P15735 whole entry): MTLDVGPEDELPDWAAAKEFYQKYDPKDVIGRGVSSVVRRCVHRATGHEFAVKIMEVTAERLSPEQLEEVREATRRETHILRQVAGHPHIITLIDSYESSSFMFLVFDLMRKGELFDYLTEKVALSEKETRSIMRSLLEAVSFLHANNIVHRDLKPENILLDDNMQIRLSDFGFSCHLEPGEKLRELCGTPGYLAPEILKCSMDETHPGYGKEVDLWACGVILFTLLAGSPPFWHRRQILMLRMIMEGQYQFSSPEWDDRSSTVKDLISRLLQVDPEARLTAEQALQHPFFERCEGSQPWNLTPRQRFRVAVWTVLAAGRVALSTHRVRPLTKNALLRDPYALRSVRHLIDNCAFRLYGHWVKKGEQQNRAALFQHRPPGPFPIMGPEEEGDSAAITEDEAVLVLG

On to `CCN(CC)c1nc(-c2ccncc2)nc2c(-c3ccc(Cl)cc3)cccc12` [VT02484], for which the LATS2 kinase activity is 96.8406 and 89.7881 in [1] (Conc. 0.00016935 (µM)); 86.8123 and 94.4369 in assay [1] (Conc. 0.00050805 (µM)); 95.4849 and 93.7686 in assay [1] (Conc. 0.00152416 (µM)); 92.5091 and 95.5041 in assay [1] (Conc. 0.00457247 (µM)); 94.4128 and 88.6006 in [1] (Conc. 0.0137174 (µM)); 86.8411 and 90.365 in assay [1] (Conc. 0.0411523 (µM)). Besides, the LATS2 kinase activity in assay [1] (Conc. 0.123457 (µM)) was 93.2446 and 92.7206; in assay [1] (Conc. 0.37037 (µM)), 94.4513 and 95.1243; in [1] (Conc. 1.11111 (µM)), 88.3362 and 87.5718; in assay [1] (Conc. 3.33333 (µM)), 84.322 and 85.4373; in [1] (Conc. 10 (µM)), 81.6154 and 76.4186. For the same compound, the IC50 in assay [1] is over 10000 nM.
As to `NCC1CCN(c2nc(-c3ccncc3)nc3c(C#CCO)cccc23)CC1` [VT02956], the “growth of ER+ breast tumour organoids (BTOs)” value in assay [2] is reported as “sensitive”. The “YAP/TAZ dephosphorylation and ERα reduction (immunoblot)” value in [3] was “dose-dependently induces YAP/TAZ dephosphorylation and ERα reduction”. Also, the remaining activity at 0.005 µM in [4] was found to be 28%; in assay [5], 85%; in assay [6], 86%; in [7], 78%; in assay [8] it was 86%; in assay [9], 69%. Further, in assay [10], the remaining activity at 0.005 µM was determined as 82%. Besides, the “% enzymatic activity relative to DMSO controls” value in [11] turned out to be 82%; in [12], 77%. Also, the LATS2 kinase activity in assay [1] (Conc. 0.00016935 (µM)) was 60.6319 and 66.1157; in assay [1] (Conc. 0.00050805 (µM)), 35.6649 and 36.636; in assay [1] (Conc. 0.00152416 (µM)) it was 7.393 and 7.887. Also, the half-inhibitory concentration (IC50) in assay [1] was determined as 0.52 nM.
